Measurements reported in patent US7041819B2, “Halogenated calixpyrroles and uses thereof” (Board of Regents, The University of Texas System, priority 1996, dated 2006).
Each block holds one molecule with its values, some of them ahead of it.

How the values were obtained:
[1] = 1H NMR titration in CD2Cl2; format: binding; conditions: tetrabutylammonium salt 0.1M added to 10 mM receptor
[2] = 1H NMR titration in CD2Cl2; format: binding; conditions: for Stability Constants, Hydrogen sulfate: Table 4, 0.1 M salt added to 10 mM receptor
[3] = 1H NMR titration in CD2Cl2; format: binding; conditions: for Stability Constant, Dihydrogen phosphate: tetrabutylammonium salt 0.1M added to 10 mM receptor; for Stability Constant, Dibiphosphate: tetrabutylammonium salt 0.03 M added to 3 mM receptor; for Stability Constants, Dihydrogen phosphate: Table 4, 0.1 M salt added to 10 mM receptor, value of 28 estimated
[4] = 1H NMR titration in CD2Cl2; conditions: for Stability Constant, Fluoride: CD2Cl2
[5] = 1H NMR titration in CD2Cl2; format: binding; conditions: tetrabutylammonium salt 0.1M added to 10 mM receptor; remark: listed apart in the source
[6] = 1H NMR titration in CD2Cl2; conditions: for Stability Constant, Chloride / Stability Constants, Chloride: CD2Cl2; for Stability Constants, Chloride: Table 4, tetrabutylammonium salt 0.1 M added to 10 mM receptor
[7] = NMR titration with neutral substrates in benzene-d6; format: binding; conditions: benzene-d6 at 298 K; 1 at ca. 4 × 10^−3 M
From the text: Substrate Binding in Solution. The binding of neutral molecules to calix[4]pyrrole in the solid state prompted the present inventors to quantify the binding affinities of calix[4]pyrrole to a number of hydrogenbinding neutral molecules. Table 6 illustrates the varying degrees of affinity to which calix[4]pyrrole binds to various hydrogen binding compounds.

[8] = Anion binding affinity compared with parent calix[4]pyrrole; conditions: 13 and 29 vs compound 2; 14 and 28 vs compound 1
From the text: These types of compounds are useful as HPLC column media since low affinity constants and fast complexation-decomplexation rates generally lead to efficient separation of substrates (see Example 10).
Receptors with an increased anion binding ability such as 14 are useful as anion sequestering agents (e.g., in removal of phosphate and nitrate pollutants from aqueous environments) (see Example 12) or as synthons in reactions to produce further modified calix[4]pyrroles. The present inventors envision this system will be useful as a precursor to a calix[m]pyridino[n]pyrrole or a calix[m]pyridine.
The attachment of electron-donating substituents (such as methoxy) to the β-position (carbon or C-rim of the calixpyrrole) decreases the stability constants of compound 13 relative to compound 2. However attachment of electron-withdrawing substituents (such as bromine) to the carbon-rim has increased the stability constants of compound 14 relative to compound 1.
This increased binding affinity towards anions was not observed for the Substituted amide substituted mesooctamethylcalix[4]pyrrole 28 when compared to the compound 1. A possible reason is that the carboxy ‘tail” is not long enough to swing around and contribute to the binding of the anion.

[9] = Binding constant in wet acetonitrile
Method: Binding constants vary with the solvent used for the binding study. Note that the solvent used for the data of Table 2 of Example 10 was dichloromethane whereas the solvent used for the studies herein was acetonitrile. In addition, a binding constant of 12,300 M^−1 was determined for the binding of pyrophosphate to 44 in wet acetonitrile.

[10] = 1H and 19F NMR titration in acetonitrile-d3 (0.5% v/v D2O); format: binding; conditions: wet acetonitrile
From the text: ^1H and ^19F NMR Titrations. The receptor 44, as a 0.014 M acetonitrile-d3 (0.5% v/v D2O) solution, was titrated by addition of concentrated acetonitrile-d3 (0.5% v/v D2O) solutions of the anions in question (in the form of their tetrabutylammonium salts). In order to account for dilution effects, these anion solutions also contained receptor 44 at its initial concentration. The data were fit to a 1:1 binding profile according to the method of Wilcox (in Frontiers in Supramolecular Organic Chemistry and Photochemistry; Schneider, H.-J., Dürr, H., Eds.; VCH: Weinheim, 1991) using changes in both the NH and β-F pyrrolic resonances in the ^1H and ^19F NMR spectra, respectively, that were assigned to the portion of the total receptor concentration that was considered to be monomeric. Specifically, the change in the position of the peaks initially at 7.24 ppm (^1H NMR) and −177.03 ppm (^19F NMR) were followed. Integration of the two pyrrolic NH resonances (corresponding to calix[4]pyrroles that are “free” and bound to the next receptor molecule) made it possible to estimate the relative concentration of the monomeric fraction in the acetonitrile-d3 (0.5% v/v D2O) solutions being subject to analysis. This estimated monomeric receptor concentration was used to calculate the affinity constants. […] Estimated errors were <20%.
The presence of two different receptor forms in solution precluded the use of Job plots to analyze binding stoichiometries. […] This increased selectivity is summarized in terms of the ratio of the binding constants, R44/43. (Table 9). Separate from the issue of binding to the monomeric form, but complicating the analyses somewhat was the finding that the addition of phosphate and fluoride to wet acetonitrile solutions of 44 led to deaggregation.
^1H and ^19F NMR spectroscopic titrations. Receptor 46, as a 0.014 M acetonitrile-d3 (0.5% v/v D2O) solution, was titrated by addition of concentrated acetonitrile-d3 (0.5% v/v D2O) solutions of the anions in question (in the form of their tetrabutylammonium salts). In order to account for dilution effects, these anion solutions also contained receptor 46 at its initial concentration. The data were fit to a 1:1 binding profile according to the method of Wilcox (Wilcox, C. S. in Frontiers in Supramolecular Organic Chemistry and Photochemistry; Schneider, H.-J., Dürr, H., Eds.; VCH: Weinheim, 1991) using changes in both the NH and β-F pyrrolic resonances in the ^1H and ^19F NMR spectra, respectively.
The binding properties of 46 and 48 were studied.

[11] = Stability under acidic conditions; format: physicochemical; conditions: for stability under conditions of acid catalysis at higher temperature: 64° C., within 24 h; for stability under conditions of acid catalysis identical to those of preparation: purified samples, 24 hours, ambient temperature
Method: An advantage of 44 is that in contrast to its simple all-hydrogen analogue 43 it is stable upon exposure to acidic aqueous environments (down to pH 3 or 4 for >24 hours). This makes this system particularly useful for anion recognition, binding, sensing, transport, and extraction applications described in Examples 4, 8, 10, 11, 12, and 15.
A further advantage of the calix[n]pyrroles is that they are stable at a wide range of temperatures, especially at neutral or basic conditions. Under acidic conditions and extreme high or low temperatures, the meso linkage may degrade. A particular attribute of the fluorinated calix[n]pyrroles 44, 46, and 48 is that they are very stable under acidic conditions.
This latter finding is consistent with compounds 46 and 48 being kinetically stable at ambient temperature but not at higher temperatures.

[12] = acetonitrile-d3 (0.5% v/v D2O) at 22° C.; Anzenbacher et al. 1999; cited from earlier work
[13] = acetonitrile-d3 (0.5% v/v D2O) at 22° C.; Anzenbacher et al. 1999; cited from earlier work; remark: listed apart in the source
[14] = acetonitrile-d3 (0.5% v/v D2O) at 22° C.; Anzenbacher et al. 1999; cited from earlier work; remark: listed apart in the source
[15] = acetonitrile-d3 (0.5% v/v D2O) at 22° C.; Anzenbacher et al. 1999; cited from earlier work; remark: listed apart in the source
[16] = tetrabutylammonium salt 0.1M added to 10 mM receptor
[17] = tetrabutylammonium fluoride trihydrate 0.1M added to 10 mM receptor
[18] = tetrabutylammonium salt 0.03 M added to 3 mM receptor, value of 14 estimated
[19] = tetrabutylammonium salt 0.03 M added to 3 mM receptor

Molecule: CC1(C)c2ccc([nH]2)C(C)(C)c2ccc([nH]2)C(C)(C)c2ccc([nH]2)C(C)(C)c2ccc1[nH]2 [Compound 1, meso-octamethylcalix[4]pyrrole]
Stability Constant, Iodide [1]: <10 M⁻¹
Stability Constant, Hydrogen sulfate [2, 16]: <10 M⁻¹
Stability Constant, Dihydrogen phosphate [3]: 97 (±3.9) M^−1
Stability Constant, Fluoride [4, 17]: 17170 (±900) M^−1
Stability Constant, Bromide [5]: 10 (±0.5) M^−1
Stability Constant, Chloride [6, 16]: 350 (±5.5) M^−1
Ka, 1,1,3,3tetramethylurea [7]: 2.2 ± 0.1 M^1
Ka, 1,2dimethylimidazole [7]: 5.4 ± 0.3 M^1
Ka, N,N-dimethylacetamide [7]: 9.0 ± 0.9 M^1
Ka, N,N-dimethylformamide [7]: 11.3 ± 0.8 M^1
Ka, N-formylglycine ethyl ester [7]: 13.3 ± 1.0 M^1
Ka, acetone [7]: 2.2 ± 0.2 M^1
Ka, benzyl alcohol [7]: 9.7 ± 0.7 M^1
Ka, dimethyl sulfoxide [7]: 16.2 ± 1.1 M^1
Ka, ethanol [7]: 10.7 ± 0.7 M^1
Ka, isopropyl alcohol [7]: 7.0 ± 0.4 M^1
Ka, methanol [7]: 12.7 ± 1.0 M^1
Ka, secbutanol [7]: 6.2 ± 0.4 M^1

Molecule: c1cc2[nH]c1C1(CCCCC1)c1ccc([nH]1)C1(CCCCC1)c1ccc([nH]1)C1(CCCCC1)c1ccc([nH]1)C21CCCCC1 [Compound 2, meso-Tetraspirocyclohexylcalix[4]pyrrole, reference compound]
Stability Constant, Dihydrogen phosphate [3]: <10 M⁻¹
Stability Constant, Fluoride [4, 17]: 3600 (±395) M^−1
Stability Constant, Chloride [6, 16]: 117 (±4.0) M^−1

Molecule: COc1c2[nH]c(c1OC)C1(CCCCC1)c1[nH]c(c(OC)c1OC)C1(CCCCC1)c1[nH]c(c(OC)c1OC)C1(CCCCC1)c1[nH]c(c(OC)c1OC)C21CCCCC1 [Compound 13, β-Octamethoxy-meso-tetraspirocyclohexylcalix[4]pyrrole]
Stability Constant, Dibiphosphate [3]: 6.5 (±0.4) × 10^2 M^−1
Stability Constant, Fluoride [4, 18]: 1.7 (±0.2) × 10^2 M^−1
anion binding affinity relative to parent calix[4]pyrrole [8]: decreased
Stability Constant, Chloride [6, 19]: <10 M⁻¹

Molecule: CC1(C)c2[nH]c(c(Br)c2Br)C(C)(C)c2[nH]c(c(Br)c2Br)C(C)(C)c2[nH]c(c(Br)c2Br)C(C)(C)c2[nH]c1c(Br)c2Br [Compound 14, β-Octabromo-meso-octamethylcalix[4]pyrrole]
Stability Constant, Dibiphosphate [3]: <10 M⁻¹
Stability Constant, Fluoride [4, 18]: 2.7 (±0.4) × 10^4b M^−1
anion binding affinity relative to parent calix[4]pyrrole [8]: increased
Stability Constant, Chloride [6, 19]: 4.3 (±0.6) × 10^3 M^−1

Molecule: CCCCNC(=O)Cc1cc2[nH]c1C(C)(C)c1ccc([nH]1)C(C)(C)c1ccc([nH]1)C(C)(C)c1ccc([nH]1)C2(C)C [Compound 28, Mono-β-butylamidocalix[4]pyrrole]
Stability Constants, Hydrogen sulfate [2]: <10 M⁻¹
Stability Constants, Dihydrogen phosphate [3]: 80 (±15)^b M^−1
anion binding affinity relative to parent calix[4]pyrrole [8]: not observed
Stability Constants, Chloride [6]: 405 (±10) M^−1

Molecule: meso-octamethylcalix[4]pyrrole [Compound 1]
Affinity constant, Cl^− [12]: 5 000 mol^−1
Affinity constant, DMSO-d6 [13]: <5^c mol^−1
Affinity constant, H2PO4^− [14]: 1 300 mol^−1
Affinity constant, F^− [15]: >10 000 mol^−1

Molecule: meso-tetramethylcalix[4]pyrrole-p-tert-butylcalix[4]arene pseudo dimer [Compound 15]
changes in the NMR spectrum on addition of tetrabutylammonium fluoride ([4]; dichloromethane-d2, 10.0 equiv.): no changes

Molecule: β-diester-meso-octamethylcalix[4]pyrrole [Compound 11]
interaction with fluoride anion in solution [4]: interact
interaction with chloride anion in solution [6]: interact

Molecule: β-monoester-meso-octamethylcalix[4]pyrrole [Compound 10]
Stability Constant, Fluoride [4, 18]: 1.1 (±0.2) × 10^3 M^−1
Stability Constant, Chloride [6, 19]: 47 (±1) M^−1

Next, values leading:

Stability Constants, Hydrogen sulfate [2]: <10 M⁻¹
Stability Constants, Dihydrogen phosphate [3]: 62 (±6) M^−1
anion binding affinity relative to parent calix[4]pyrrole [8]: marked increase
Stability Constants, Chloride [6]: 415(±45) M^−1
Molecule: CCCCNC(=O)CCCC1(C)c2ccc([nH]2)C2(CCCCC2)c2ccc([nH]2)C2(CCCCC2)c2ccc([nH]2)C2(CCCCC2)c2ccc1[nH]2 (stereo not drawn) [Compound 29, Mono-meso-butylamidocalix[4]pyrrole]

Stability Constant, Pyrophosphate [9]: 12300 M⁻¹
Stability Constant, Chloride [10]: 10700 M⁻¹
stability under acidic conditions [11]: very stable
Molecule: CC1(C)c2[nH]c(c(F)c2F)C(C)(C)c2[nH]c(c(F)c2F)C(C)(C)c2[nH]c(c(F)c2F)C(C)(C)c2[nH]c1c(F)c2F [Compound 44, Meso-Octamethyl-β-octafluorocalix[4]pyrrole]

Stability Constant, Pyrophosphate [9]: 25 000 M^−1
Stability Constant, Chloride [10]: 41 000 M^−1
Stability Constant, DMSO [10]: 29 (±3) M^−1
stability under acidic conditions [11]: very stable
stability under conditions of acid catalysis at higher temperature [11]: nearly complete conversion to 44
stability under conditions of acid catalysis identical to those of preparation [11]: remained completely intact
Molecule: CC1(C)c2[nH]c(c(F)c2F)C(C)(C)c2[nH]c(c(F)c2F)C(C)(C)c2[nH]c(c(F)c2F)C(C)(C)c2[nH]c(c(F)c2F)C(C)(C)c2[nH]c1c(F)c2F [Compound 46, β-Decafluoro-meso-decamethylcalix[5]pyrrole]

Stability Constant, Pyrophosphate [9]: 28 000 M^−1
Stability Constant, Chloride [10]: 3 600 M^−1
stability under acidic conditions [11]: very stable
stability under conditions of acid catalysis at higher temperature [11]: nearly complete conversion to 44
stability under conditions of acid catalysis identical to those of preparation [11]: remained completely intact
Molecule: CC1(C)c2[nH]c(c(F)c2F)C(C)(C)c2[nH]c(c(F)c2F)C(C)(C)c2[nH]c(c(F)c2F)C(C)(C)c2[nH]c(c(F)c2F)C(C)(C)c2[nH]c(c(F)c2F)C(C)(C)c2[nH]c(c(F)c2F)C(C)(C)c2[nH]c(c(F)c2F)C(C)(C)c2[nH]c1c(F)c2F [Compound 48, β-hexadecafluoro-meso-hexadecamethylcalix[8]pyrrole]
